ChEMBL document CHEMBL4819035, “C-2-Linked Dimeric Strychnine Analogues as Bivalent Ligands Targeting Glycine Receptors” (J Nat Prod, 2021)

How the values were obtained:
[1] = molecular target: T1, Glycine receptor subunit alpha-1 (Homo sapiens, UniProt P23415); assay: Antagonist activity at human glycine receptor subunit alpha-1 expressed in human tsA201 cells assessed as reduction in glycine-induced response incubated for 30 mins by fluorescence-based FLIPR membrane potential blue assay; type: cell-based
T1 sequence (P23415 whole entry): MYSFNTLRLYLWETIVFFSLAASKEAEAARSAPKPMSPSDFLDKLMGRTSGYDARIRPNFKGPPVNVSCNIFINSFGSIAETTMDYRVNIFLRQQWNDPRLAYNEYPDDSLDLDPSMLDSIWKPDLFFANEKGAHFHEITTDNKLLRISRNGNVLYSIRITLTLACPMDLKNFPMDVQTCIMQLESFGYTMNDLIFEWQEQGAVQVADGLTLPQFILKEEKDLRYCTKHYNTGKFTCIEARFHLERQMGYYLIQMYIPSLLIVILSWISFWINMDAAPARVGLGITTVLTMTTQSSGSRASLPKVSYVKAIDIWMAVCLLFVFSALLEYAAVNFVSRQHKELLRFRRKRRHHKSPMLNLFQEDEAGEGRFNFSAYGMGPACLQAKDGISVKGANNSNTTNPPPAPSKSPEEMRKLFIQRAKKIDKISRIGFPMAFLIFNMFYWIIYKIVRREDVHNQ

[2] = molecular target: T2, Glycine receptor (alpha-1/beta) (Homo sapiens, UniProt P23415+P48167); assay: Antagonist activity at human glycine receptor subunit alpha-1beta expressed in human tsA201 cells assessed as reduction in glycine-induced response incubated for 30 mins by fluorescence-based FLIPR membrane potential blue assay; type: cell-based; details: for pIC50: tsa201
T2 sequence (P48167 whole entry, one chain of several): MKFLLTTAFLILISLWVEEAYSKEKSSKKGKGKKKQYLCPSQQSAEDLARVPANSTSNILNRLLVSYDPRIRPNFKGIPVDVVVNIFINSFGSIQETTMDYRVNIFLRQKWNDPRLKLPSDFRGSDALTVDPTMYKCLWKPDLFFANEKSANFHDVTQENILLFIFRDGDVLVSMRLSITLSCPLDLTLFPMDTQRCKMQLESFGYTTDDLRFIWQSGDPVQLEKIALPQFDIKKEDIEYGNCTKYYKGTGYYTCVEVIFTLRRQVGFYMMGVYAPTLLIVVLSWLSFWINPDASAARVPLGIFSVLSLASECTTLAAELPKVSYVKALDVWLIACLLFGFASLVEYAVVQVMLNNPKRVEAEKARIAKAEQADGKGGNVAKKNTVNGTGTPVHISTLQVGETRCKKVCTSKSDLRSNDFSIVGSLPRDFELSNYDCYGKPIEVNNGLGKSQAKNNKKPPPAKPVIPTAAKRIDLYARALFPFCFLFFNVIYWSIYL

[3] = molecular target: T1, Glycine receptor subunit alpha-1; assay: Antagonist activity at human glycine receptor subunit alpha-1 expressed in HEK293 cells assessed as reduction in glycine-induced currents by whole-cell patch-clamp assay; type: cell-based
[4] = molecular target: T1, Glycine receptor subunit alpha-1; assay: Displacement of [3H]strychnine from human glycine receptor subunit alpha-1 expressed in HEK293 cell membranes preincubated for 30 mins followed by [3H]strychnine addition and measured after 30 mins by liquid scintillation counting method; set-up: species or system Membrane
[5] = molecular target: T1, Glycine receptor subunit alpha-1; assay: Antagonist activity at human glycine receptor subunit alpha-1 assessed as inhibition of glycine-induced current measured at the onset of compound application by patch-clamp assay
[6] = molecular target: T1, Glycine receptor subunit alpha-1; assay: Antagonist activity at human glycine receptor subunit alpha-1 assessed as inhibition of glycine-induced current measured at the later state of compound application by patch-clamp assay
[7] = molecular target: T2, Glycine receptor (alpha-1/beta); assay: Antagonist activity at human glycine receptor subunit alpha-1beta expressed in HEK293 cells assessed as reduction in glycine-induced currents by whole-cell patch-clamp assay; type: cell-based

SMILES | IC50 ([1]; read-out: IC50) [nM] | IC50 ([2]; read-out: IC50) [nM] | IC50 [3] [nM] | also measured
CCCCCCCC(=O)NCCCCCCCCCCC(=O)Nc1ccc2c(c1)[C@@]13CCN4CC5=CCO[C@H]6CC(=O)N2[C@H]1[C@H]6[C@H]5C[C@H]43 | 10000 | 5800 | 1700 | –
COCCOCCOCCOCCOCCOCCOCCOCCOCCOCCOCCOCCC(=O)NCCCCC(=O)Nc1ccc2c(c1)[C@@]13CCN4CC5=CCO[C@H]6CC(=O)N2[C@H]1[C@H]6[C@H]5C[C@H]43 | 15000 | 10000 | – | Ki [4]: 436 nM; IC50 [5]: 852 nM; IC50 [6]: 137 nM
O=C(CCC(=O)Nc1ccc2c(c1)[C@@]13CCN4CC5=CCO[C@H]6CC(=O)N2[C@H]1[C@H]6[C@H]5C[C@H]43)Nc1ccc2c(c1)[C@@]13CCN4CC5=CCO[C@H]6CC(=O)N2[C@H]1[C@H]6[C@H]5C[C@H]43 | 10000 | 10000 | – | –
O=C(CCCCC(=O)Nc1ccc2c(c1)[C@@]13CCN4CC5=CCO[C@H]6CC(=O)N2[C@H]1[C@H]6[C@H]5C[C@H]43)Nc1ccc2c(c1)[C@@]13CCN4CC5=CCO[C@H]6CC(=O)N2[C@H]1[C@H]6[C@H]5C[C@H]43 | 6100 | 10000 | – | –
O=C(CCCCCCCCCCC(=O)NCC(=O)Nc1ccc2c(c1)[C@@]13CCN4CC5=CCO[C@H]6CC(=O)N2[C@H]1[C@H]6[C@H]5C[C@H]43)NCC(=O)Nc1ccc2c(c1)[C@@]13CCN4CC5=CCO[C@H]6CC(=O)N2[C@H]1[C@H]6[C@H]5C[C@H]43 | 2700 | 1900 | 100 | –
O=C(CCCCCCCCCCC(=O)NCCCCCCCCCCC(=O)Nc1ccc2c(c1)[C@@]13CCN4CC5=CCO[C@H]6CC(=O)N2[C@H]1[C@H]6[C@H]5C[C@H]43)NCCCCCCCCCCC(=O)Nc1ccc2c(c1)[C@@]13CCN4CC5=CCO[C@H]6CC(=O)N2[C@H]1[C@H]6[C@H]5C[C@H]43 | 30000 | 50000 | 3100 | IC50 ([2]; read-out: pIC50 (converted)): 31600 nM
O=C(CCCCCCCCC(=O)Nc1ccc2c(c1)[C@@]13CCN4CC5=CCO[C@H]6CC(=O)N2[C@H]1[C@H]6[C@H]5C[C@H]43)Nc1ccc2c(c1)[C@@]13CCN4CC5=CCO[C@H]6CC(=O)N2[C@H]1[C@H]6[C@H]5C[C@H]43 | 7200 | 10000 | 1500 | IC50 [7]: 1900 nM
O=C(CCCCCC(=O)NCC(=O)Nc1ccc2c(c1)[C@@]13CCN4CC5=CCO[C@H]6CC(=O)N2[C@H]1[C@H]6[C@H]5C[C@H]43)NCC(=O)Nc1ccc2c(c1)[C@@]13CCN4CC5=CCO[C@H]6CC(=O)N2[C@H]1[C@H]6[C@H]5C[C@H]43 | 2800 | 2200 | 130 | IC50 ([1]; read-out: pIC50 (converted)): 2690 nM
O=C(CCCCCCCC(=O)NCC(=O)Nc1ccc2c(c1)[C@@]13CCN4CC5=CCO[C@H]6CC(=O)N2[C@H]1[C@H]6[C@H]5C[C@H]43)NCC(=O)Nc1ccc2c(c1)[C@@]13CCN4CC5=CCO[C@H]6CC(=O)N2[C@H]1[C@H]6[C@H]5C[C@H]43 | 2100 | 1700 | 400 | –
O=C(CCCCCCCCCCCCCCC(=O)NCCCCCCCCCCC(=O)Nc1ccc2c(c1)[C@@]13CCN4CC5=CCO[C@H]6CC(=O)N2[C@H]1[C@H]6[C@H]5C[C@H]43)NCCCCCCCCCCC(=O)Nc1ccc2c(c1)[C@@]13CCN4CC5=CCO[C@H]6CC(=O)N2[C@H]1[C@H]6[C@H]5C[C@H]43 | 10000 | > 10000 | – | pIC50 [2]: < 5
O=C(CCOCCOCCOCCOCCOCCOCCOCCOCCOCCOCCOCCOCCC(=O)NCCCCCCCCCCC(=O)Nc1ccc2c(c1)[C@@]13CCN4CC5=CCO[C@H]6CC(=O)N2[C@H]1[C@H]6[C@H]5C[C@H]43)NCCCCCCCCCCC(=O)Nc1ccc2c(c1)[C@@]13CCN4CC5=CCO[C@H]6CC(=O)N2[C@H]1[C@H]6[C@H]5C[C@H]43 | 10000 | 3900 | – | Ki [4]: 204 nM; IC50 [5]: 3310 nM; IC50 [6]: 67 nM
O=C(CCCCCCCCCCCCCCC(=O)NCCCCC(=O)Nc1ccc2c(c1)[C@@]13CCN4CC5=CCO[C@H]6CC(=O)N2[C@H]1[C@H]6[C@H]5C[C@H]43)NCCCCC(=O)Nc1ccc2c(c1)[C@@]13CCN4CC5=CCO[C@H]6CC(=O)N2[C@H]1[C@H]6[C@H]5C[C@H]43 | 7900 | 4100 | – | –
O=C(CCOCCOCCOCCOCCOCCOCCOCCOCCOCCOCCOCCOCCC(=O)NCCCCC(=O)Nc1ccc2c(c1)[C@@]13CCN4CC5=CCO[C@H]6CC(=O)N2[C@H]1[C@H]6[C@H]5C[C@H]43)NCCCCC(=O)Nc1ccc2c(c1)[C@@]13CCN4CC5=CCO[C@H]6CC(=O)N2[C@H]1[C@H]6[C@H]5C[C@H]43 | 4300 | 1800 | – | Ki [4]: 81 nM; IC50 [5]: 1340 nM; IC50 [6]: 55 nM
O=C(CCCCCCCCCCCCCCCCCCCCC(=O)NCCCCCCCCCCC(=O)Nc1ccc2c(c1)[C@@]13CCN4CC5=CCO[C@H]6CC(=O)N2[C@H]1[C@H]6[C@H]5C[C@H]43)NCCCCCCCCCCC(=O)Nc1ccc2c(c1)[C@@]13CCN4CC5=CCO[C@H]6CC(=O)N2[C@H]1[C@H]6[C@H]5C[C@H]43 | > 10000 | > 10000 | 2900 | pIC50 ([1]; tsa201): < 5; pIC50 [2]: < 5
O=C(CCCCCCCCCCCCC(=O)Nc1ccc2c(c1)[C@@]13CCN4CC5=CCO[C@H]6CC(=O)N2[C@H]1[C@H]6[C@H]5C[C@H]43)Nc1ccc2c(c1)[C@@]13CCN4CC5=CCO[C@H]6CC(=O)N2[C@H]1[C@H]6[C@H]5C[C@H]43 | 430 | 210 | – | –
O=C(CCCCCCC(=O)NCC(=O)Nc1ccc2c(c1)[C@@]13CCN4CC5=CCO[C@H]6CC(=O)N2[C@H]1[C@H]6[C@H]5C[C@H]43)NCC(=O)Nc1ccc2c(c1)[C@@]13CCN4CC5=CCO[C@H]6CC(=O)N2[C@H]1[C@H]6[C@H]5C[C@H]43 | 2800 | 2400 | 170 | –
O=C(CCCCCCCCCCCCCCC(=O)NCC(=O)Nc1ccc2c(c1)[C@@]13CCN4CC5=CCO[C@H]6CC(=O)N2[C@H]1[C@H]6[C@H]5C[C@H]43)NCC(=O)Nc1ccc2c(c1)[C@@]13CCN4CC5=CCO[C@H]6CC(=O)N2[C@H]1[C@H]6[C@H]5C[C@H]43 | 3200 | 2200 | – | –
CCCCCCCC(=O)NCC(=O)Nc1ccc2c(c1)[C@@]13CCN4CC5=CCO[C@H]6CC(=O)N2[C@H]1[C@H]6[C@H]5C[C@H]43 | 780 | 510 | 90 | –
O=C(CCCCCCCCC(=O)NCC(=O)Nc1ccc2c(c1)[C@@]13CCN4CC5=CCO[C@H]6CC(=O)N2[C@H]1[C@H]6[C@H]5C[C@H]43)NCC(=O)Nc1ccc2c(c1)[C@@]13CCN4CC5=CCO[C@H]6CC(=O)N2[C@H]1[C@H]6[C@H]5C[C@H]43 | 730 | 880 | – | –
O=C(CCCC(=O)Nc1ccc2c(c1)[C@@]13CCN4CC5=CCO[C@H]6CC(=O)N2[C@H]1[C@H]6[C@H]5C[C@H]43)Nc1ccc2c(c1)[C@@]13CCN4CC5=CCO[C@H]6CC(=O)N2[C@H]1[C@H]6[C@H]5C[C@H]43 | 10000 | 30000 | – | –
CCCCCCCC(=O)Nc1ccc2c(c1)[C@@]13CCN4CC5=CCO[C@H]6CC(=O)N2[C@H]1[C@H]6[C@H]5C[C@H]43 | 1200 | 680 | – | –
O=C(CCCCCCC(=O)NCCCCCCCCCCC(=O)Nc1ccc2c(c1)[C@@]13CCN4CC5=CCO[C@H]6CC(=O)N2[C@H]1[C@H]6[C@H]5C[C@H]43)NCCCCCCCCCCC(=O)Nc1ccc2c(c1)[C@@]13CCN4CC5=CCO[C@H]6CC(=O)N2[C@H]1[C@H]6[C@H]5C[C@H]43 | 30000 | 20000 | 1400 | IC50 ([2]; read-out: pIC50 (converted)): 50100 nM
O=C(CCCCCCCCCCCCC(=O)NCC(=O)Nc1ccc2c(c1)[C@@]13CCN4CC5=CCO[C@H]6CC(=O)N2[C@H]1[C@H]6[C@H]5C[C@H]43)NCC(=O)Nc1ccc2c(c1)[C@@]13CCN4CC5=CCO[C@H]6CC(=O)N2[C@H]1[C@H]6[C@H]5C[C@H]43 | 1700 | 2000 | – | –
COCCOCCOCCOCCOCCOCCOCCOCCOCCOCCOCCOCCC(=O)NCCCCCCCCCCC(=O)Nc1ccc2c(c1)[C@@]13CCN4CC5=CCO[C@H]6CC(=O)N2[C@H]1[C@H]6[C@H]5C[C@H]43 | 20000 | 10000 | – | Ki [4]: 977 nM; IC50 [5]: 5720 nM; IC50 [6]: 158 nM
